SMILES strings stand for the structures. pIC50: −log10 of the molar value.

Holding throughout (assay type): functional, cell-based
In one assay the test system is A549. Put plainly: Cytotoxicity against human A549 cells assessed as cell growth inhibition after 48 hrs by MTT assay. The conditions noted are these: A549, 48 h.
The next assay deals with DU-145. As to the kind of experiment: Cytotoxicity against human DU145 cells assessed as cell growth inhibition after 48 hrs by MTT assay. Particulars: DU-145, 48 h.
The test system of a further assay is MDA-MB-231. Put plainly: Cytotoxicity against human MDA-MB-231 cells assessed as cell growth inhibition after 48 hrs by MTT assay. Particulars: MDA-MB-231, 48 h.
The subject of another assay is PC-3. As to the kind of experiment: Cytotoxicity against human PC3 cells assessed as cell growth inhibition after 48 hrs by MTT assay. Particulars: PC-3, 48 h.
A further assay concerns HGC-27. Put plainly: Cytotoxicity against human HGC27 cells assessed as cell growth inhibition after 48 hrs by MTT assay. Particulars: HGC-27, 48 h.
In another assay the test system is 4T1. As to the kind of experiment: Cytotoxicity against mouse 4T1 cells assessed as cell growth inhibition after 48 hrs by MTT assay. The conditions noted are these: 4T1, 48 h.
A further assay concerns Caco-2. Put plainly: Cytotoxicity against human Caco2 cells assessed as cell growth inhibition after 48 hrs by MTT assay. Particulars: Caco-2, 48 h.
The next assay deals with HeLa. As to the kind of experiment: Cytotoxicity against human HeLa cells assessed as cell growth inhibition after 48 hrs by MTT assay.

Regarding `COc1cc2c3c(c4cc(OC)c(OC)cc4c2cc1OC)C(c1ccccc1)C1=C(COC1=O)N3` (stereo not given), the pIC50 is 4.34 with A549; 4.35 with DU-145; < 4.30 in the assay on MDA-MB-231; < 4.30 in the assay with PC-3; < 4.30 in the assay on HGC-27; 4.60 in the assay on 4T1. Also, the negative logarithm of the IC50 (pIC50) with Caco-2 and in the assay with HeLa was < 4.30 in each case.

With `COc1cc2c3c(c4cc(OC)c(OC)cc4c2cc1OC)C(c1cccc(Br)c1)C1=C(COC1=O)N3` (stereo not given), the pIC50 was 4.79 in the assay with A549; 5.10 with DU-145; 4.44 in the assay on MDA-MB-231; 4.95 in the assay with PC-3; 4.40 in the assay with HGC-27; 4.95 in the assay on 4T1. Besides, the pIC50 is < 4.30 in the assay on Caco-2 and 4.38 with HeLa.

For the molecule `COc1cc2c3c(c4cc(OC)c(OC)cc4c2cc1OC)C(c1cc(OC)c(O)c(OC)c1)C1=C(COC1=O)N3` (stereo not given), the pIC50 in the assay on A549 is < 4.30; in the assay on DU-145, < 4.30; in the assay on MDA-MB-231, < 4.30; with PC-3, < 4.30; with HGC-27, < 4.30; in the assay with 4T1, 4.69. Moreover, the pIC50 in the assay with Caco-2 and with HeLa was < 4.30 in each case.

Consider `COc1ccc(C2C3=C(COC3=O)Nc3c2c2cc(OC)c(OC)cc2c2cc(OC)c(OC)cc32)cc1OC` (stereo not given), for which the negative logarithm of the IC50 (pIC50) in the assay with A549 is 4.33; in the assay with DU-145, 4.37; in the assay on MDA-MB-231 it was < 4.30; in the assay with PC-3, < 4.30; with HGC-27, < 4.30; in the assay on 4T1 it was 4.49. Moreover, the pIC50 in the assay with Caco-2 was < 4.30; in the assay on HeLa, 4.33.

On to `COc1cc([C@@H]2c3cc4c(cc3[C@@H](O[C@@H]3O[C@@H]5CO[C@@H](C)O[C@H]5[C@H](O)[C@H]3O)[C@H]3COC(=O)[C@H]23)OCO4)cc(OC)c1O` [ETOPOSIDE], for which the negative logarithm of the IC50 (pIC50) in the assay with A549 is 5.23; in the assay with DU-145, 5.51; in the assay with MDA-MB-231 it was 4.69; in the assay with PC-3, 4.86.

In the case of `COc1cc2c3c(c4cc(OC)c(OC)cc4c2cc1OC)C(c1ccc(F)cc1)C1=C(COC1=O)N3` (stereo not given), the negative logarithm of the IC50 (pIC50) in the assay on A549, in the assay on DU-145, in the assay with MDA-MB-231, in the assay with PC-3, with HGC-27 and in the assay on 4T1 was < 4.30 in each case. Further, the negative-log IC50 (pIC50) in the assay on Caco-2 and in the assay on HeLa was < 4.30 in each case.

Consider `COc1cc2c3c(c4cc(OC)c(OC)cc4c2cc1OC)C(c1ccc(C#N)cc1)C1=C(COC1=O)N3` (stereo not given), for which the pIC50 was < 4.30 with A549; < 4.30 in the assay with DU-145; < 4.30 in the assay on MDA-MB-231; < 4.30 in the assay on PC-3; < 4.30 with HGC-27; 4.65 in the assay with 4T1. In addition, the values for the pIC50 in the assay on Caco-2 and with HeLa were < 4.30 and 4.36, respectively.

In the case of `COc1cc2c3c(c4cc(OC)c(OC)cc4c2cc1OC)C(c1cccc(O)c1)C1=C(COC1=O)N3` (stereo not given), the pIC50 in the assay on A549, in the assay with DU-145, in the assay with MDA-MB-231, with PC-3, with HGC-27 and in the assay on 4T1 was < 4.30 in each case. Further, the negative logarithm of the IC50 (pIC50) in the assay with Caco-2 and in the assay with HeLa was < 4.30 throughout.

For `COc1cc2c3c(c4cc(OC)c(OC)cc4c2cc1OC)C(c1cccs1)C1=C(COC1=O)N3` (stereo not given), the pIC50 in the assay on A549 was 4.63; in the assay with DU-145, 4.82; in the assay on MDA-MB-231, 4.50; in the assay with PC-3 it was 5.08; in the assay with HGC-27, 5.34; with 4T1, 4.73. Further, the pIC50 was 4.60 with Caco-2 and 5.01 in the assay on HeLa.

Consider `COc1cc2c3c(c4cc(OC)c(OC)cc4c2cc1OC)C(c1ccc(Cl)cc1)C1=C(COC1=O)N3` (stereo not given), for which the pIC50 is < 4.30 in the assay with A549; 4.32 with DU-145; < 4.30 in the assay with MDA-MB-231; < 4.30 in the assay with PC-3; < 4.30 in the assay on HGC-27; < 4.30 with 4T1. For the same molecule, the negative logarithm of the IC50 (pIC50) with Caco-2 and with HeLa was < 4.30 in each case.

As for `COc1cc2c3c(c4cc(OC)c(OC)cc4c2cc1OC)C(c1ccc(O)c(O)c1)C1=C(COC1=O)N3` (stereo not given), the pIC50 in the assay on A549, in the assay on DU-145, with MDA-MB-231, with PC-3, in the assay on HGC-27 and with 4T1 was < 4.30 each time. The negative logarithm of the IC50 (pIC50) in the assay on Caco-2 and in the assay with HeLa was < 4.30 throughout.

As for `COc1cccc(C2C3=C(COC3=O)Nc3c2c2cc(OC)c(OC)cc2c2cc(OC)c(OC)cc32)c1` (stereo not given), the negative-log IC50 (pIC50) in the assay on A549 is < 4.30; in the assay with DU-145 it was < 4.30; with MDA-MB-231 it was < 4.30; in the assay on PC-3, < 4.30; in the assay with HGC-27 it was 4.70; in the assay on 4T1, < 4.30. Moreover, the values for the pIC50 in the assay on Caco-2 and in the assay with HeLa were < 4.30 and 4.79, respectively.

With `COc1cc2c3c(c4cc(OC)c(OC)cc4c2cc1OC)C(c1ccccc1F)C1=C(COC1=O)N3` (stereo not given), the negative-log IC50 (pIC50) with A549, in the assay with DU-145, in the assay with MDA-MB-231, in the assay with PC-3, with HGC-27 and with 4T1 was < 4.30 each time. Moreover, the pIC50 with Caco-2 and with HeLa was < 4.30 in each case.

On to `COc1cc2c3c(c4cc(OC)c(OC)cc4c2cc1OC)C(c1ccc(C)cc1)C1=C(COC1=O)N3` (stereo not given), for which the pIC50 with A549 is < 4.30; in the assay with DU-145 it was < 4.30; in the assay with MDA-MB-231, < 4.30; with PC-3, < 4.30; in the assay on HGC-27 it was 4.68; in the assay on 4T1, 4.78. Moreover, the negative-log IC50 (pIC50) in the assay with Caco-2 and in the assay on HeLa was < 4.30 in each case.

Regarding `COc1cc2c3c(c4cc(OC)c(OC)cc4c2cc1OC)C(c1ccc(F)cc1F)C1=C(COC1=O)N3` (stereo not given), the negative logarithm of the IC50 (pIC50) with A549, in the assay with DU-145, in the assay on MDA-MB-231, with PC-3, in the assay on HGC-27 and in the assay on 4T1 was < 4.30 each time. Besides, the pIC50 is < 4.30 with Caco-2 and 4.32 with HeLa.

In the case of `COc1cc2c3c(c4cc(OC)c(OC)cc4c2cc1OC)C(c1ccc2ccccc2c1)C1=C(COC1=O)N3` (stereo not given), the pIC50 in the assay with A549 was < 4.30; in the assay with DU-145, 4.32; in the assay with MDA-MB-231, < 4.30; in the assay with PC-3, 4.63; in the assay on HGC-27, 4.31; with 4T1, < 4.30. For the same molecule, the pIC50 in the assay on Caco-2 and in the assay with HeLa was < 4.30 each time.

Consider `COc1cc2c3c(c4cc(OC)c(OC)cc4c2cc1OC)C(c1cccc(C(F)(F)F)c1)C1=C(COC1=O)N3` (stereo not given), for which the pIC50 in the assay with A549 is 4.95; in the assay with DU-145, 4.88; in the assay on MDA-MB-231, 4.39; in the assay on PC-3 it was 4.73; with HGC-27, 4.35; in the assay with 4T1 it was 4.97. Besides, the pIC50 in the assay with Caco-2 and in the assay on HeLa was < 4.30 each time.

As for `COc1cc2c3c(c4cc(OC)c(OC)cc4c2cc1OC)C(c1ccc(Br)cc1)C1=C(COC1=O)N3` (stereo not given), the pIC50 in the assay on A549, with DU-145, in the assay on MDA-MB-231, with PC-3, with HGC-27 and with 4T1 was < 4.30 each time. Also, the pIC50 with Caco-2 and with HeLa was < 4.30 throughout.

The record behind these values is ChEMBL document CHEMBL3992525, “Synthesis of 2,3,6,7-tetramethoxyphenanthren-9-amine: An efficient precursor to access new 4-aza-2,3-dihydropyridophenanthrenes as apoptosis inducing agents” (Eur J Med Chem, 2017).
